Drawing on patent US7829567B2, “Imino-indeno[1,2-c] quinoline derivatives, their preparation processes, and pharmaceutical compositions comprising the same” (Kaohsiung Medical University, priority 2007, dated 2010), this text covers melting point and IC50 for 23 compounds.

Structures can show the parent of a compound that is named as a salt. Where two headings read alike, the source gives them in different places. A value given as a limit tells only on which side of the number the result lay.

Series [1] relates to human cervical epithelioid carcinoma (HeLa). Briefly: In vitro anticancer assay (MTT), HeLa. Type of series: cell-based. The note with it: HeLa cells, 48 hrs, mean ± spread, read-out: Anti-proliferative evaluation IC50, HeLa. Here is the method:
(§1) The resultant tetrazolium salt was then dissolved by the addition of dimethyl sulfoxide. Color was measured spectrophotometrically in a microtiter plate reader at 570 nm and used as a relative measure of viable cell number. The number of viable cells after treatment was compared to solvent and untreated control cells and used to determine the percent of control growth as (Abtreated/Abcontrol)×100, where Ab represents the mean absorbance (n=3). […] D. Heo et al. […] (+)-camptothecin (CPT) and doxorubicin hydrochloride (Dox) were used for comparison with the compounds according to this invention.

Series [2] deals with oral squamous cell carcinoma (SAS). In words: In vitro anticancer assay (MTT), SAS. In kind it is cell-based. The note with it: SAS cells, 48 hrs, mean ± spread, read-out: Anti-proliferative evaluation IC50, SAS. Here is the method: as §1
The subject of series [3] is hepatocellular carcinoma (SKHep1). In words: In vitro anticancer assay (MTT), SKHep1. In kind it is cell-based. The note with it: 48 hrs, mean ± spread, read-out: Anti-proliferative evaluation IC50, SKHep1. Here is the method:
as §1

The test system of series [4] is human stomach adenocarcinoma (AGS). Briefly: In vitro anticancer assay (MTT), AGS. In kind it is cell-based. The settings on record: AGS cells, 48 hrs, mean ± spread, read-out: Anti-proliferative evaluation IC50, AGS. How it is done: as §1
Series [5] has as its system human renal clear cell carcinoma. In words: In vitro anticancer assay (MTT), RCC 768-O. Type of series: cell-based. The note with it: RCC 768-O cells, 48 hrs, mean ± spread, read-out: Anti-proliferative evaluation IC50, RCC 768-O. Here is the method:
as §1

For series [6], the system named is esophageal carcinoma (CE81T). Briefly: In vitro anticancer assay (MTT), CE81T. The settings on record: CE81T cells, 48 hrs, mean ± spread, read-out: Anti-proliferative evaluation IC50, CE81T. In kind it is cell-based. How it is done: as §1
Setting [7] is: Homo sapiens, SK-HEP1, SKHep1 cells.

Consider `CON=C1c2ccccc2-c2c(N3CCNCC3)nc3ccccc3c21` (as salt: salt) [Compound 6j, 6-(Piperazin-1-yl)-11H-indeno[1,2-c]quinolin-11-one O-methyl oxime], for which the melting point was in the range of 149 to 150 °C.
Regarding `CN(C)CCNc1nc2ccccc2c2c1-c1ccccc1C2=O` [Compound 5a, 6-(2-(Dimethylamino)ethylamino)-11H-indeno[1,2-c]quinolin-11-one], the melting point lay in the range of 148 to 149 °C. Also, the IC50 in series [1] (Homo sapiens) is 2.4 ± 1.2 µM. The IC50 in series [2] came to 6.6 ± 0.9 µM. Moreover, the IC50 in series [3] (setting [7]) is 3.8 ± 1.8 µM. Moreover, the half-maximal inhibitory concentration (IC50) in series [4] (Homo sapiens) is 7.9 ± 1.5 µM. For the same compound, the IC50 in series [5] (Homo sapiens) worked out at 7.1 ± 0.6 µM. In series [6], the half-inhibitory concentration (IC50) came to 4.1 ± 3.3 µM.
On to `COc1ccc2c(c1)C(=O)c1c-2cnc2ccccc12` [Compound 5d, 9-Methoxy-11H-indeno[1,2-c]quinolin-11-one], for which the melting point is 195 to 196 °C.
`COc1ccc2c(c1)C(=O)c1c-2c(O)nc2ccccc12` [Compound 5e, 6-Hydroxy-9-methoxy-11H-indeno[1,2-c]quinolin-11-one]: the melting point was 316 to 317 °C.
As to `COc1ccc2c(c1)C(=O)c1c-2c(N2CCN(C(=O)CCCl)CC2)nc2ccccc12` [Compound 5hh, 6-[4-(3-Chloropropanoyl)piperazin-1-yl]-9-methoxy-11H-indeno[1,2-c]quinolin-11-one], the melting point was 162 to 163 °C.
`COc1ccc2c(c1)C(=O)c1c-2c(Nc2ccc(C(C)=O)cc2)nc2ccccc12` [Compound 5s, 6-(4-Acetylphenylamino)-9-methoxy-11H-indeno[1,2-c]quinolin-11-one]: the melting point fell in the range of 251 to 252 °C. The IC50 in series [1] (Homo sapiens) came out at 7.2 ± 0.9 µM. In series [2], the IC50 amounted to 6.5 ± 0.9 µM. Also, the IC50 in series [3] (setting [7]) came out at 7.4 ± 2.1 µM. Besides, the IC50 in series [4] (Homo sapiens) amounted to 5.9 ± 1.4 µM. For the same compound, the concentration for half-maximal inhibition (IC50) in series [5] (Homo sapiens) was found to be 9.1 ± 1.5 µM. Moreover, in series [6], the IC50 was 6.8 ± 1.2 µM.
Compound `COc1ccc2c(c1)C(=O)c1c-2c(N2CCNCC2)nc2ccccc12` [Compound 5x, 9-Methoxy-6-(piperazin-1-yl)-11H-indeno[1,2-c]quinolin-11-one] yielded a melting point of 150 to 151 °C. Also, in series [1] (Homo sapiens), the concentration for half-maximal inhibition (IC50) is 15.2 ± 1.5 µM. Also, the IC50 in series [2] is over 30 µM. For the same compound, the 50% inhibitory concentration (IC50) in series [3] (setting [7]) amounted to 25.3 ± 15.5 µM. Further, in series [4] (Homo sapiens), the half-inhibitory concentration (IC50) stood at 10.1 ± 1.2 µM. For the same compound, the IC50 in series [5] (Homo sapiens) was found to be 12.5 ± 1 µM. Further, the concentration for half-maximal inhibition (IC50) in series [6] was over 30 µM.
The compound `COc1ccc2c(c1)C(=NO)c1c-2cnc2ccccc12` [Compound 6a, 9-Methoxy-11H-indeno[1,2-c]quinolin-11-one oxime] returned a melting point of 270 to 271 °C.
`CON=C1c2cc(OC)ccc2-c2c(N3CCN(C(=O)CCN(C)C)CC3)nc3ccccc3c21` [Compound 6m]: the IC50 in series [1] came out at 3.6 ± 1.6 µM; in series [2], 7 ± 0.5 µM; in series [3] (SKHep1 cells), 5 ± 0.8 µM; in series [4] it was 7.5 ± 1.1 µM; in series [5] it was 5.3 ± 1.8 µM; in series [6], 3 ± 2 µM.
For the compound `COc1ccc2c(c1)C(=NO)c1c-2c(N2CCN(C(=O)CCNCCN(C)C)CC2)nc2ccccc12` [Compound 6n, 3-[2-(Dimethylamino)ethylamino]-1-{4-[11-(hydroxyimino)-9-methoxy-11H-indeno[1,2-c]quinolin-6-yl]piperazin-1-yl}propan-1-one], the IC50 was over 30 µM in series [1] (Homo sapiens); 7.3 ± 0.4 µM in series [2]; over 30 µM in series [3] (setting [7]); 7.4 ± 1.2 µM in series [4] (Homo sapiens); 5.6 ± 1.6 µM in series [5] (Homo sapiens); over 30 µM in series [6].
As for `CON=C1c2cc(OC)ccc2-c2c(N3CCN(C(=O)CCNCCN(C)C)CC3)nc3ccccc3c21` [Compound 6o], the IC50 in series [1] was 11.5 ± 1.3 µM; in series [2] it was 19.1 ± 2.2 µM; in series [3] (SKHep1 cells), 11.6 ± 7.3 µM; in series [4], over 30 µM; in series [5], over 30 µM; in series [6], 4.8 ± 1.6 µM.
Take `COc1ccc2c(c1)C(=NO)c1c-2c(N2CCNCC2)nc2ccccc12` [Compound 6p, 9-Methoxy-6-(piperazin-1-yl)-11H-indeno[1,2-c]quinolin-11-one oxime]: the 50% inhibitory concentration (IC50) is 2.7 ± 1.2 µM in series [1] (Homo sapiens); 6.1 ± 0.9 µM in series [2]; 3.8 ± 1.3 µM in series [3] (setting [7]); 1.7 ± 0.5 µM in series [4] (Homo sapiens); 1.2 ± 0.9 µM in series [5] (Homo sapiens); 2.6 ± 0.9 µM in series [6].
Consider `CON=C1c2cc(OC)ccc2-c2c(N3CCNCC3)nc3ccccc3c21` [Compound 6q], for which the 50% inhibitory concentration (IC50) is 10.6 ± 4.4 µM in series [1]; 10.3 ± 0.5 µM in series [2]; 9.3 ± 2.9 µM in series [3] (SKHep1 cells); 5.2 ± 0.5 µM in series [4]; 8.3 ± 1.3 µM in series [5]; 7.2 ± 3.1 µM in series [6].
With `COc1ccc2c(c1)C(=NOCCN(C)C)c1c-2c(N2CCNCC2)nc2ccccc12` [Compound 6r, 9-Methoxy-6-(piperazin-1-yl)-11H-indeno[1,2-c]quinolin-11-one O-2-(dimethylamino)ethyl oxime], the IC50 was 0.5 ± 0.2 µM in series [1] (Homo sapiens); 2.4 ± 1.2 µM in series [2]; 0.7 ± 0.2 µM in series [3] (setting [7]); 6.8 ± 2 µM in series [4] (Homo sapiens); 2 ± 1.9 µM in series [5] (Homo sapiens); over 30 µM in series [6].
On to `COc1ccc2c(c1)C(=NOCCCN(C)C)c1c-2c(N2CCNCC2)nc2ccccc12` [Compound 6s, 9-Methoxy-6-(piperazin-1-yl)-11H-indeno[1,2-c]quinolin-11-one O-3-(dimethylamino)propyl oxime], for which the IC50 in series [1] (Homo sapiens) is 0.6 ± 0.3 µM; in series [2] it was 4.9 ± 0.6 µM; in series [3] (setting [7]), 3 ± 2.8 µM; in series [4] (Homo sapiens), 6.8 ± 1.8 µM; in series [5] (Homo sapiens), 4.9 ± 0.8 µM; in series [6] it was over 30 µM.
As to `COc1ccc2c(c1)C(=NOCCCN)c1c-2c(N2CCNCC2)nc2ccccc12` [Compound 6t, 9-Methoxy-6-(piperazin-1-yl)-11H-indeno[1,2-c]quinolin-11-one O-3-aminopropyl oxime], the 50% inhibitory concentration (IC50) in series [1] (Homo sapiens) is 0.9 ± 0.4 µM; in series [2], 6.3 ± 0.9 µM; in series [3] (setting [7]), 3 ± 2.2 µM; in series [4] (Homo sapiens), 5.9 ± 1.2 µM; in series [5] (Homo sapiens), 4.4 ± 1.4 µM; in series [6], 6.5 ± 0.6 µM.
Consider `COc1ccc2c(c1)C(=NOCCN1CCCC1)c1c-2c(N2CCNCC2)nc2ccccc12` [Compound 6u, 9-Methoxy-6-(piperazin-1-yl)-11H-indeno[1,2-c]quinolin-11-one O-2-(pyrrolidin-1-yl)ethyl oxime], for which the concentration for half-maximal inhibition (IC50) came to 0.6 ± 0.2 µM in series [1] (Homo sapiens); 2.4 ± 1.3 µM in series [2]; 0.7 ± 0.3 µM in series [3] (setting [7]); 4.8 ± 1.3 µM in series [4] (Homo sapiens); 2.6 ± 0.5 µM in series [5] (Homo sapiens); 2.9 ± 1.7 µM in series [6].
`COc1ccc2c(c1)C(=NOCCN1CCCCC1)c1c-2c(N2CCNCC2)nc2ccccc12` [Compound 6v, 9-Methoxy-6-(piperazin-1-yl)-11H-indeno[1,2-c]quinolin-11-one O-2-(piperidin-1-yl)ethyl oxime]: the IC50 in series [1] (Homo sapiens) is 0.8 ± 0.3 µM; in series [2], 5.8 ± 0.5 µM; in series [3] (setting [7]), 1.6 ± 0.5 µM; in series [4] (Homo sapiens) it was 7.1 ± 0.8 µM; in series [5] (Homo sapiens) it was 4.5 ± 1.4 µM; in series [6], over 30 µM.
As for `COc1ccc2c(c1)C(=NOCCN1CCOCC1)c1c-2c(N2CCNCC2)nc2ccccc12` [Compound 6w], the half-maximal inhibitory concentration (IC50) in series [1] was 0.8 ± 0.2 µM; in series [2] it was 6.9 ± 1.3 µM; in series [3] (SKHep1 cells) it was 1 ± 0.4 µM; in series [4], 5.8 ± 1.9 µM; in series [5], 4.1 ± 1.9 µM; in series [6], over 30 µM.
Consider `COc1ccc2c(c1)C(=NOCc1ccccc1)c1c-2c(N2CCNCC2)nc2ccccc12` [Compound 6x], for which the IC50 amounted to 6.1 ± 0.3 µM in series [1]; 7.6 ± 0.6 µM in series [2]; 4.2 ± 1.8 µM in series [3] (SKHep1 cells); 6.1 ± 1.4 µM in series [4]; 7 ± 0.4 µM in series [5]; 3.4 ± 2.3 µM in series [6].
Regarding `COc1ccc2c(c1)C(=NOCC1CO1)c1c-2c(N2CCN(CC3CO3)CC2)nc2ccccc12` (centres unmarked) [Compound 6y], the IC50 worked out at 0.5 ± 0.2 µM in series [1]; 6.2 ± 0.9 µM in series [2]; 1 ± 0.5 µM in series [3] (SKHep1 cells); 8.8 ± 4.1 µM in series [4]; 8.8 ± 2.2 µM in series [5]; 2 ± 1.2 µM in series [6].
On to `COc1ccc2c(c1)C(=NOCC(O)CN(C)C)c1c-2c(N2CCN(CC(O)CN(C)C)CC2)nc2ccccc12` (centres unmarked) [Compound 6z], for which the half-maximal inhibitory concentration (IC50) in series [1] came out at 1 ± 0.4 µM; in series [2] it was 9 ± 2.7 µM; in series [3] (SKHep1 cells), 2.5 ± 1.7 µM; in series [4], 18.6 ± 6.2 µM; in series [5], 13.9 ± 10.5 µM; in series [6], 9 ± 3.6 µM.
Take `COc1cccc2c1C(=O)c1c(O)c3c(c(O)c1C2=O)C[C@@](O)(C(=O)CO)C[C@@H]3O[C@H]1C[C@H](N)[C@H](O)[C@H](C)O1` [Dox, doxorubicin hydrochloride, reference compound]: the IC50 in series [1] (Homo sapiens) is 0.4 ± 0.1 µM; in series [2] it was 5.7 ± 0.3 µM; in series [3] (setting [7]) it was under 0.1 µM; in series [4] (Homo sapiens) it was over 30 µM; in series [5] (Homo sapiens), 2.2 ± 0.3 µM; in series [6], 0.3 ± 0.1 µM.

Broadly, the melting point is the temperature, or range, at which the solid turns liquid. In general, IC50 refers to the concentration at which inhibition is half-maximal.
